One assay deals with Type IV PDE. Briefly: Measurement of type IV PDE inhibiting activity. In kind it is biochemical. Particulars: type IV PDE partially purified from neutrophils; 3H-cAMP substrate; 30 minutes; read-out: Type IV PDE Inhibitory activity IC50. As to the method: Type I, III, IV, and V PDE isozymes were prepared to study the PDE inhibiting activities and selectivities of the compound of the invention [Trends Pharmacol Sci., 12, 19-27 (1992)]. Type I PDE was purchased from Sigma Corp. Type III and V PDE isozymes were partially purified from rats platelets, and type IV PDE isozyme was partially purified from neutrophils. Each enzyme source was homogenized in a buffer (pH 6.5) containing 20 mM bisTris, 2 mM EDTA, 0.1 mM PMSF (phenylmethylsulfonyl fluoride), 5 mM 2-mercaptoethanol, 0.01 mM pepstatin, and 0.01 mM leupeptin and was centrifuged at 30,000G for 30 minutes to obtain a supernatant, which was applied to a column (1.5×20 cm) packed with an ion-exchange resin (Q-sepharose First Flow, Pharmacia Corp.) and was eluted with sodium acetate gradient of 0 to 1M. Partially purified isozymes were identified by observing the effects of conventional inhibitor.
Each PDE isozyme and test compounds dissolved in DMSO (i.e., dimethyl sulfoxide) were added to 50 mM Tris-HCl buffer containing 5 mM magnesium chloride. ^3 H-cAMP (for type III and IV PDE) or ^3 H-cGMP (for type I and V PDE) were added as substrates and were reacted for 30 minutes. The reaction was terminated by placing the test tube in boiling water of 100° C. for 5 minutes. The nucleotides formed by PDE were broken down by 5'-nucleotidase to ^3 H-adenosine or 3H-guanosine. The unreacted substrate and reaction product were separated through a column packed with an ion-exchange resin (QAE sephadex). The eluted ^3 H-nucleoside was measured for its radioactivity by a liquid scintillation counter. The inhibiting activities of the compound of the present invention against types I, III and V are 1/10 or less than that against type IV.

Assay [1] has as its system antigen-induced bronchospasm. Briefly: Inhibitory effect on antigen-induced bronchospasm (anti-asthmatic action). The assay is classed as in vivo. To be noted: Cavia porcellus, iv; ovalbumin-sensitized Hartley male guinea pig; intravenously 10 minutes before 0.2 mg/kg OA i.v.; Konzett-Roessler method; read-out: Action for suppressing antigen-induced bronchospasms ED50. As for the experimental part:
A Hartley male guinea pig was sensitized by intramuscular administration of […] Ovalbumin (OA) on first day and fourth day, and used after 24th day. A trachial canula was introduced in the guinea pig anesthetized with pentobarbital and artificial ventilation was performed 25 to 29 days after the first sensitization. The overflow of the ventilation was measured by the Konzett-Roessler method, while 0.2 mg/kg OA were administered intravenously. The test compound was dissolved in polyethylene glycol 400 and intravenously administered 10 minutes before administration of the antigens.

A further assay concerns rat neutrophils. Nature of the assay: Inhibitory effects on activity of rat neutrophils (release of super oxide anions). To be noted: Neutrophil, stimulation with 0.3 μM calcium ionophore A23187, chemiluminescence, read-out: Action for suppressing release of super oxide anions from rat neutrophils IC50. In kind it is cell-based. As for the experimental part: The release of super oxide anions was measured so as to study the inhibitory effects of the compound on inflammatory leukocytes, that is, neutrophils.
Blood sample was obtained from Wister rats anesthetized with ether. It was superposed on a blood cell separation solution (Polymorphoprep 1.113, made by Naicomet Co. (phonetic)) and the neutrophils were separated by centrifugation. The neutrophils were resuspended in a Hank's balanced salt solution at a concentration of 0.5×10^4 cell/ml. 0.1 mM of Lusigenin and the test substance dissolved in DMSO were added to 2 ml of the cell-suspension. The chemiluminescence generated by stimulation of 0.3 μM calcium ionophore A23187 was measured by a chemiluminescence reader so as to evaluate the release of super oxide anions.

What is called IC50 is the concentration that gives 50% inhibition. For orientation: ED50 means the dose that gives a 50% effect, or the effect in half of the subjects. For `COc1ccc(C2C=NN(C)C(=O)C2)cc1OCC(C)C` (stereo not shown) [Compound No. 20, 5-[4-methoxy-3-(2-methylpropoxy)phenyl]-2-methyl-2,3,4,5-tetrahydropyridazin-3-one], the IC50 in the assay with Type IV PDE stood at 2300 nM. Also, in assay [1], the ED50 was 0.97 mg/kg.

For the compound `COc1ccc(C2C=NN(c3ccccc3)C(=O)C2)cc1OC` (stereo not shown) [Compound No. 2, 5-(3,4-dimethoxyphenyl)-2-phenyl-2,3,4,5-tetrahydropyridazin-3-one], the 50% inhibitory concentration (IC50) was found to be 4200 nM in the assay with Type IV PDE and 1700 nM in the assay on rat neutrophils.

As for `COc1ccc(C2C=NNC(=O)C2)cc1OCC(C)(C)C` (stereo not shown) [Compound No. 15, 5-[3-(2,2-dimethylpropoxy)-4-methoxyphenyl]-2,3,4,5-tetrahydropyridazin-3-one], the IC50 in the assay with Type IV PDE stood at 4800 nM.

On to `COc1ccc(C2C=NNC(=O)C2)cc1OCC1CC1` (stereo not shown) [Compound No. 10, 5-(3-cyclopropylmethyloxy-4-methoxyphenyl)-2,3,4,5-tetrahydropyridazin-3-one], for which the half-inhibitory concentration (IC50) with Type IV PDE was 1600 nM. Moreover, the 50% effective dose (ED50) in assay [1] was 0.074 mg/kg.

Turning to `COc1ccc(C2CC(=O)NN=C2C)cc1OC` (stereo not shown) [compound 27, 5-(3,4-dimethoxyphenyl)-6-methyl-2,3,4 5-tetrahydropyridazin-3-one], the half-maximal inhibitory concentration (IC50) in the assay with Type IV PDE amounted to 18000 nM; in the assay on rat neutrophils, 15000 nM.

As to `COc1ccc(C2C=NN(Cc3ccccc3)C(=O)C2)cc1OC1CCCC1` (stereo not shown) [Compound No. 6, 2-benzyl-5-(3-cyclopentyloxy-4-methoxyphenyl)-2,3,4,5-tetrahydropyridazin-3-one], the results for the IC50 in the assay on Type IV PDE and in the assay with rat neutrophils were 180 nM and 130 nM, respectively. Further, the ED50 in assay [1] worked out at 3.2 mg/kg.

`COc1ccc(C2C=NNC(=O)C2)cc1OCCCCCc1ccccc1` (stereo not shown) [Compound No. 16, 5-[4-methoxy-3-(5-phenylpentyloxy)phenyl]-2,3,4,5-tetrahydropyridazin-3-one]: the concentration for half-maximal inhibition (IC50) with Type IV PDE amounted to 330 nM.

For the compound `CCCCOc1cc(C2C=NN(C)C(=O)C2)ccc1OC` (stereo not shown) [Compound No. 23, 5-(3-butoxy-4-methoxyphenyl)-2-methyl-2,3,4,5-tetrahydropyridazin-3-one], the IC50 in the assay with Type IV PDE was 6300 nM. Also, the ED50 in assay [1] came to 0.53 mg/kg.

On to `COc1ccc(C2CC(=O)NN=C2c2ccccc2)cc1OC1CCCC1` (stereo not shown) [Compound No. 28, 5-(3-cyclopentyloxy-4-methoxyphenyl)-6-phenyl-2,3,4,5-tetrahydropyridazin-3-one], for which the IC50 in the assay with Type IV PDE amounted to 19000 nM.

As for `COc1ccc(C2CNNC(=O)C2)cc1OC1CCCC1` (stereo not shown) [Compound No. 4, 5-(3-cyclopentyloxy-4-methoxyphenyl)hexahydropyridazin-3-one], the IC50 in the assay on Type IV PDE stood at 2500 nM. The ED50 in assay [1] came to 2.1 mg/kg.

`COc1ccc(C2C=NNC(=O)C2)cc1OC1CCCC1` (stereo not shown) [Compound No. 3, 5-(3-cyclopentyloxy-4-methoxyphenyl)-2,3,4,5-tetrahydropyridazin-3-one]: the concentration for half-maximal inhibition (IC50) came to 420 nM in the assay on Type IV PDE and 30 nM in the assay on rat neutrophils. In addition, the ED50 in assay [1] came out at 0.4 mg/kg.

Turning to `COc1ccc(C2C=NN(C)C(=O)C2)cc1OC1CCCC1` (stereo not shown) [Compound No. 5, 5-(3-cyclopentyloxy-4-methoxyphenyl)-2-methyl-2,3,4,5-tetrahydropyridazin-3-one], the values for the IC50 in the assay with Type IV PDE and with rat neutrophils were 670 nM and 430 nM, respectively.

Consider `COc1ccc(C2C=NN(C)C(=O)C2)cc1OCC1(C)CC1` (stereo not shown) [Compound No. 22, 5-[4-methoxy-3-[(1-methylcyclopropyl)methyloxy]phenyl]-2-methyl-2,3,4,5-tetrahydropyridazin-3-one], for which, in the assay with Type IV PDE, the IC50 came to 2700 nM. Also, the ED50 in assay [1] worked out at 2.37 mg/kg.

For the compound `COc1ccc(C2C=NNC(=O)C2)cc1OCCc1ccccc1` (stereo not shown) [Compound No. 8, 5-(4-methoxy-3-phenethyloxyphenyl)-2,3,4,5-tetrahydropyridazin-3-one], the half-maximal inhibitory concentration (IC50) with Type IV PDE was 1600 nM. Moreover, the 50% effective dose (ED50) in assay [1] came to 4.2 mg/kg.

Consider `COc1ccc(C2C=NN(C)C(=O)C2)cc1OCCc1ccccc1` (stereo not shown) [Compound No. 19, 5-(4-methoxy-3-phenethyloxyphenyl) -2-methyl-2,3,4,5-tetrahydropyridazin-3-one], for which, in the assay on Type IV PDE, the IC50 stood at 2700 nM.

`COc1ccc(C2C=NNC(=O)C2)cc1OCC1(c2ccccc2)CC1` (stereo not shown) [Compound No. 25, 5-[4-methoxy-3-[(1-phenylcyclopropyl)methyloxy]phenyl]-2,3,4,5-tetrahydropyridazin-3-one]: in the assay with Type IV PDE, the IC50 is 750 nM.

With `COc1ccc(C2C=NN(C)C(=O)C2)cc1OCC(C)(C)C` (stereo not shown) [Compound No. 21, 5-[3-(2,2-dimethylpropoxy)-4-methoxyphenyl]-2-methyl-2,3,4,5-tetrahydropyridazin-3-one], the 50% inhibitory concentration (IC50) in the assay on Type IV PDE amounted to 3900 nM.

`COc1ccc(C2C=NN(C)C(=O)C2)cc1OC1Cc2ccccc2C1` (stereo not shown) [Compound No. 17, 5-[3-(2-indanyloxy)-4-methoxyphenyl]-2-methyl-2,3,4,5-tetrahydropyridazin-3-one]: the IC50 in the assay on Type IV PDE worked out at 630 nM.

Turning to `COc1ccc(C2C=NN(C)C(=O)C2)cc1OCC1CC1` (stereo not shown) [Compound No. 18, 5-(3-cyclopropylmethyloxy-4-methoxyphenyl) -2-methyl-2,3,4,5-tetrahydropyridazin-3-one], the 50% inhibitory concentration (IC50) in the assay on Type IV PDE is 4600 nM. The ED50 in assay [1] came to 0.12 mg/kg.

For the compound `CCC(CC)COc1cc(C2C=NN(C)C(=O)C2)ccc1OC` (stereo not shown) [Compound No. 24, 5-[4-methoxy-3-(2-ethylbutoxy)phenyl]-2-methyl-2,3,4,5-tetrahydropyridazin-3-one], in the assay on Type IV PDE, the IC50 was 340 nM.

As for `CCC(CC)COc1cc(C2C=NNC(=O)C2)ccc1OC` (stereo not shown) [Compound No. 14, 5-[3-(2-ethylbutoxy)-4-methoxyphenyl]-2,3,4,5-tetrahydropyridazin-3-one], the IC50 in the assay on Type IV PDE is 2300 nM.

On to `COc1ccc(C2C=NNC(=O)C2)cc1OCC1(C)CC1` (stereo not shown) [Compound No. 11, 5-[4-methoxy-3-[(1-methylcyclopropyl)methyloxy]phenyl]2,3,4,5-tetrahydropyridazin-3-one], for which the half-inhibitory concentration (IC50) with Type IV PDE is 1200 nM. Also, the median effective dose (ED50) in assay [1] is 0.82 mg/kg.

For the compound `COc1ccc(C2C=NNC(=O)C2)cc1OC` (stereo not shown) [Compound No. 1, 5-(3,4-dimethoxyphenyl)-2,3,4,5-tetrahydropyridazin-3-one], the IC50 in the assay with Type IV PDE was 9300 nM; with rat neutrophils, 14000 nM.

For `COc1ccc(C2C=NNC(=O)C2)cc1OCc1ccccc1` (stereo not shown) [Compound No. 7, 5-(3-benzyloxy-4-methoxyphenyl)-2,3,4,5-tetrahydropyridazin-3-one], the half-maximal inhibitory concentration (IC50) in the assay on Type IV PDE stood at 8700 nM.

Consider `COc1ccc(C2C=NN(C)C(=O)C2)cc1OCC1(c2ccccc2)CC1` (stereo not shown) [Compound No. 26, 5-[4-methoxy-3-[(1-phenylcyclopropyl)methyloxy]phenyl]-2-methyl-2,3,4,5-tetrahydropyridazin-3-one], for which, in the assay with Type IV PDE, the half-inhibitory concentration (IC50) was found to be 1400 nM.

Regarding `CCCCOc1cc(C2C=NNC(=O)C2)ccc1OC` (stereo not shown) [Compound No. 13, 5-(3-butoxy-4-methoxyphenyl)-2,3,4,5-tetrahydropyridazin-3-one], the IC50 with Type IV PDE was 3400 nM. Moreover, in assay [1], the ED50 worked out at 1.4 mg/kg.

For `COc1ccc(C2C=NNC(=O)C2)cc1OCC(C)C` (stereo not shown) [Compound No. 12, 5-[4-methoxy-3-(2-methylpropoxy)phenyl]-2,3,4,5-tetrahydropyridazin-3-one], in the assay on Type IV PDE, the IC50 was 1100 nM. Also, the 50% effective dose (ED50) in assay [1] was determined as 1.05 mg/kg.

With `COc1ccc(C2C=NNC(=O)C2)cc1OC1Cc2ccccc2C1` (stereo not shown) [Compound No. 9, 5-[3-(2-indanyloxy)-4-methoxyphenyl]-2,3,4,5-tetrahydropyridazin-3-one], the IC50 in the assay with Type IV PDE turned out to be 170 nM.

The values are drawn from US6235739A, “5-phenyl-3-pyridazinone derivatives and drug composition containing the same” (Nikken Chemicals Co., Ltd., priority 1996, dated 2001).
